Measurements from patent US9549911B2, “Ginger metabolites and uses thereof” (North Carolina A&T State University, priority 2012, dated 2017).
Like-named read-outs stand apart in the source and are kept apart here.

How the values were obtained:
[1] = system: human colon cancer cells HCT-116; assay: MTT growth inhibition of human cancer and normal cells (Part 2); format: cell-based; conditions: HCT-116, 48 h, 0 to 80 μM
Method: (§1) Growth inhibition of human cancer and normal cells. Cell growth inhibition was determined by a MTT colorimetric assay. Human colon cancer cells HCT-116, human lung cancer cells H-1299, human colon fibroblast cells CCD-18Co, and human lung fibroblast cells IMR-90 were plated in 96-well microtiter plates with 3000 cells/well and allowed to attach for 24 h at 37° C. […] After the cells were cultured for 48 h, the medium was aspirated and cells were treated with 200 μL fresh medium containing 2.41 mmol/L MTT. […] The reading reflected the number of viable cells and was expressed as a percentage of viable cells in the control. Both HCT-116 and H-1299 cells were cultured in McCoy's 5A medium. CCD-18Co and IMR-90 cells were cultured in Eagle's modified essential medium (EMEM). All of the above media were supplemented with 10% fetal bovine serum, 1% penicillin/streptomycin, and 1% glutamine, and the cells were kept in a 37° C. incubator with 95% humidity and 5% CO2.

[2] = system: human lung cancer cells H-1299; assay: as above; format: cell-based; conditions: H-1299, 48 h, 0 to 80 μM
Method: as §1

[3] = system: human lung fibroblast cells IMR-90; assay: in vitro; format: cell-based
Method: as §1

[4] = system: A549 lung cancer cells; conditions: for tumor weight lower (minus % compared to DMSO-treated control): after 7 weeks; for BrdU+ cells/field in tumor tissue: control about 6.3; for TUNEL+ cells/field in tumor tissue: control about 15.5; for tumor size versus control group: 6S 30 mg/kg, M2 30 mg/kg, M14 10 mg/kg, oral gavage 5×/week
Method: Nu/J nude mice were obtained from Jackson Laboratories (Bar Harbor, Me.). Animals were randomized into 4 groups. A549 cells (5×10^6 cells) were implanted in both flanks of 8-weeks old Nu/J mice. One week after implantation, animals were given 100 μl of the following treatments through oral gavage 5 times/week: DMSO 0.25 ml/kg (control; n=4); 6S 10 mg/kg (n=4); 6S 30 mg/kg (n=4) or M2 30 mg/kg (n=5). Compounds were diluted in a solution of 5% DMSO in corn oil. Animal body weight and tumor volume were recorded for the duration of the experiment. Tumor volume was calculated by measuring the length and width of the tumors using a digital caliper and using the formula (Length×Width^2)/2. One hour before sacrifice, mice were given one last treatment dose as well as one intra-peritoneal injection of BrdU (7.5 mg/kg in 100 μl PBS). After 7 weeks, tumor tissues were harvested and weighed. A portion of the tumors was snap frozen in liquid nitrogen and another portion was placed in a histology cassette and immersed in formalin solution.
[…] tissues were sent to Precision Histology Lab (Oklahoma City, Okla.) for embedding in paraffin blocks. Then paraffin blocks were processed into 3-4 μm sections that were then put on microscope slides. Sections were then deparaffinized by using a succession of 3 baths of xylene (5 minutes each), 2 baths of absolute ethanol (5 minutes each), 95% ethanol for 3 minutes, 70% ethanol for 3 minutes, and rinsed in PBS. Immunostaining with TUNEL (terminal deoxynucleotidyl transferase dUTP nick end labeling) and BrdU staining kits was performed following manufacturer's recommendation. For staining quantification, sequential high-power field pictures of tumors were taken (10 pictures per tumor) using an A1 Zeiss microscope (Oberkochen, Germany). Images were processed using the Image J software, which was used to count positive, brown-colored cells in each field. Average number per tumor was calculated by averaging the number obtained for each field, and the average number of positive cells per group was obtained by averaging the values of each tumor belonging to the experimental group.
8 week-old nude mice (Jackson Laboratory, Maine) were randomized into 5 groups based on treatment (DMSO: n=4; 6S 10 mg/kg: n=4 (“6S 10”); 6S 30 mg/kg: n=4 (“6S 30”); M2 30 mg/kg: n=5 (“M2 30”); M14 10 mg/kg: n=4 (“M14 10”)). Animals were implanted with 5×10^6 A549 lung cancer cells (adenocarcinomic human alveolar basal epithelial cells) on each flank. The mice had access to food and water ad libitum. One week post implantation, the animals started receiving their respecting treatments through oral gavage (100 μl in corn oil and 5% DMSO), 5×/week. After 7 weeks of treatment, the tumor tissues were harvested.

[5] = system: HT-29 colon cancer cells; assay: Apoptosis by FACS analysis of propidium iodide-stained cells; format: cell-based, human; conditions: HT-29, 40 μM, 24 hours
Method: Apoptosis was determined by FACS analysis of propidium iodide (PI)-stained cells. In brief, cells were trypsinized, washed with cold phosphate-buffered saline (PBS), fixed in ice-cold 70% ethanol for 1 hour, and then resuspended in 2 mL PBS supplemented with 10 μL RNase (100 mg/ml) and incubated at 37° C. for 30 min. After incubation, DNA was stained with 1 mg/mL PI in PBS. Cell staining was analyzed using a Cell Lab Quanta™ SC flow cytometer (Beckman Coulter, Danvers, Mass.) and data were processed using FCS Express software (DeNovo Software, Los Angeles, Calif.). The percentage of apoptotic cells in each sample was determined based on the sub G0 peaks detected in monoparametric histograms.

[6] = system: HCT-116 cells; assay: Western blot analysis of apoptosis markers and p53 (Part 5); format: cell-based, human; conditions: for p53 expression (Western blot): HCT-116 (p53 wild-type), 24 hours, M2, 6S 10, 20 or 40 μM, 8S, M2′, 10S, M2″ 20 μM
Method: (§2) Cell lysates were prepared in ice-cold RIPA lysis buffer [25 mM Tris-HCl (pH 7.6), 150 mM NaCl, 1% NP-40, 1% sodium deoxycholate, 0.1% SDS, Thermo Fisher Scientific] supplemented with a protease inhibitor cocktail (AEBSF, aprotinin, bestatin, E-64, leupeptin and pepstatin A in DMSO with EDTA, Thermo Fisher Scientific). Protein content was measured by a Pierce BCA Assay Kit (Thermo Fisher Scientific). Protein contents of cell lysates (30 μg protein/lane) were resolved by SDS-PAGE. Proteins were then electro-transferred onto PVDF membranes and blots were blocked for one hour at room temperature in 1×TBS with 1% Casein (Bio-Rad Laboratories, Berkeley, Calif.). Blots were then incubated overnight at 4° C. with the desired primary antibody diluted in TBS with 0.5% Tween-20. Blots were then washed with TBS-Tween 20 and probed for 1 hour with the appropriate secondary antibody (1:1000). Protein bands were visualized with chemiluminescence using West Femto maximum detection substrate (Thermo Fisher Scientific). To confirm equal protein loading in each lane, immunoblots were stripped and re-probed for β-actin. Protein fold-induction was calculated by normalizing the intensity of the band of interest to β-actin first, and then to DMSO control lanes.

[7] = system: HT-29 cells; assay: as above; format: cell-based, human; conditions: for p53 expression (Western blot): HT-29 (p53 mutant), 24 hours, M2, 6S 10, 20 or 40 μM, 8S, M2′, 10S, M2″ 20 μM
Method: as §2

[8] = M2 30 mg/kg vs 6S 30 mg/kg, 7 weeks

Row | Compound | IC50 [1] | IC50 [2] | IC50 [3] | tumor weight lower (minus % compared to DMSO-treated control) ([4]; 30 mg/kg oral gavage 5×/week) | BrdU+ cells/field in tumor tissue ([4]; 30 mg/kg) | TUNEL+ cells/field in tumor tissue ([4]; 30 mg/kg) | tumor size versus control group ([4]; 7 weeks) | p53 expression (Western blot) [6] | p53 expression (Western blot) [7] | also measured
1 | CCCCCC(CC(=O)CCc1ccc(O)c(OC)c1)SC[C@H](N)C(=O)O (some centres unmarked) [M2, 5-cysteinyl-[6]-shogaol] | 24.4 µM | 25.8 µM | 98.3 µM | 53.7% | 5.7 BrdU+ cells/field | 28.6 TUNEL+ cells/field | Reduction in tumor size | dose-dependent up-regulation of p53 | dose-dependent up-regulation of p53 | decrease of tumor burden relative to the equivalent 6S group [4, 8]: 21.8%; lower tumor burden than the equivalent 6S group compared to DMSO [4, 8]: 12.9%; changes in body weight between groups ([4]; oral gavage up to 7 weeks): did not induce any significant changes in body weight; apoptotic cells (FACS, PI) [5]: 14.38%; Bcl-2 levels (Western blot, vs DMSO) ([6]; HCT-116, 40 μM): undetectable; PUMA induction (Western blot, vs DMSO) ([6]; HCT-116, 40 μM): ~17 fold; XIAP expression (Western blot, vs DMSO) ([6]; HCT-116, 40 μM): undetectable; cleaved caspase 9 (Western blot, vs DMSO) ([6]; HCT-116, 40 μM): ~4.6 fold; cytochrome c release (Western blot, vs DMSO) ([6]; HCT-116, 40 μM): ~2.2 fold; Bcl-2 levels (Western blot, vs DMSO) ([7]; HT-29, 40 μM): ~0.1 fold; PUMA induction (Western blot, vs DMSO) ([7]; HT-29, 40 μM): ~17 fold; XIAP expression (Western blot, vs DMSO) ([7]; HT-29, 40 μM): ~0.3 fold; cleaved caspase 9 (Western blot, vs DMSO) ([7]; HT-29, 40 μM): ~4.6 fold; cytochrome c release (Western blot, vs DMSO) ([7]; HT-29, 40 μM): ~2.2 fold
2 | CCCCC/C=C/C(=O)CCc1ccc(O)c(OC)c1 [[6]-shogaol, reference compound] | 18.2 µM | 17.9 µM | 36.6 µM | 40.8% | 3.4 BrdU+ cells/field | 32.6 TUNEL+ cells/field | Reduction in tumor size | dose-dependent up-regulation of p53 | dose-dependent up-regulation of p53 | tumor weight lower (minus % compared to DMSO-treated control) ([4]; 10 mg/kg oral gavage 5×/week, not significant): 25.6%; BrdU+ cells/field in tumor tissue ([4]; 10 mg/kg): 4.7 BrdU+ cells/field; TUNEL+ cells/field in tumor tissue ([4]; 10 mg/kg): 27.8 TUNEL+ cells/field
